# Laboratory results published in patent US20260306428A1 (The Trustees of Indiana University, priority 2023, published 2026).
# Legend:
# [1] = test system: SIRT1; settings: role: activator; cited from earlier work
# [2] = oral, anti-diabetic treatment; cited from earlier work
# [3] = test system: impacted chondrocytes; assay: Chondrocyte viability by live/dead staining in impacted cartilage; assay type: cell-based, bovine; settings: for rescue of chondrocyte viability following AMD: AMPK activation (EX229 1 μM and 10 μM) or SIRT1 activation (SRT1720 1 μM and 5 μM); for prevention of impact-induced chondrocyte death: EX229 1 μM and 10 μM, SRT1720 1 μM and 5 μM
# Procedure: Bovine cartilage was cultured with metformin following an impact from a drop tower device.
# As a preliminary assessment, live/dead staining was evaluated in impacted bovine cartilage treated with specific pharmacological activators of AMPK and SIRT1 or left untreated with appropriate vehicle (DMSO).
# One half of the explant was assessed for cell viability via live/dead staining, and the other half was stained with MitoTracker Green and TMRM to evaluate mitochondrial health.
# [4] = test system: caspase 3/7; assay: Apoptosis via activated caspase 3/7 signalling (CellEvent) in sublethally impacted cartilage explants; assay type: cell-based, bovine; settings: sublethal impact, 24 hr post-impact
# Source text: (§1) Bovine cartilage explants were impacted with sublethal force to evaluate the injury response in viable chondrocytes.
# (§2) Apoptosis and Oxidative Stress: Cartilage was removed from subchondral bone and stained for apoptosis via activated caspase 3/7signalling (CellEvent, Invitrogen) or ROS (CellRox, Invitrogen) 24 hr post-impact, as shown in FIG. 1A and FIG. 1B, respectively.
# [5] = test system: reactive oxygen species (ROS); assay: Oxidative stress / ROS staining (CellRox) in sublethally impacted cartilage explants; assay type: cell-based, bovine; settings: sublethal impact, 24 hr post-impact, 10 mM
# Source text: as §1, §2
# [6] = test system: mitochondria in chondrocytes; assay: Mitochondrial function (TMRM / MitoTracker Green red:green ratio) in cartilage explants; assay type: cell-based, bovine
# [7] = test system: AMPK; settings: role: activator; cited from earlier work
# [8] = test system: Complex I; settings: role: inhibitor; cited from earlier work
# [9] = cited from earlier work
# [10] = test system: Complex I; settings: in vivo; cited from earlier work
# [11] = impacted, EX229 1 μM and 10 μM (FIG. 4A), SRT1720 1 μM and 5 μM (FIG. 4B)
compound,measurement,setting,value
"CN(C)C(=N)NC(=N)N.Cl [metformin, 1,1-dimethylbiguanide hydrochloride]",activation of SIRT1,[1],activates AMPK and SIRT1
same,side effects,[2],"nausea, vomiting, diarrhoea, and stomach pain"
same,cell viability (live/dead staining),"[3]; drop tower impact, 24 hr post-impact, 10 mM",improved cell viability
same,cell viability (live/dead staining),"[3]; drop tower impact, 24 hr post-impact, 50 mM",completely rescue impacted chondrocytes
same,"cell viability (live/dead staining), data not shown","[3]; impacted bovine cartilage, 125 mM, trends similar to mitochondrial function",showed similar trends
same,apoptotic signalling (caspase 3/7),[4]; 1 mM,only partially reduced apoptotic signalling
same,apoptosis (caspase 3/7 signalling),"[4]; 1 mM, 5 mM and 10 mM",dose-dependent decrease
same,apoptosis (caspase 3/7),[4]; 10 mM,completely suppressed apoptosis
same,oxidative stress (ROS),[5],full suppression of oxidative stress
same,mitochondrial dysfunction in impacted chondrocytes,"[6]; impacted explants, 24 hours post-impact, 10 mM and 50 mM",rescues mitochondrial dysfunction in impacted chondrocytes in a dose-dependent manner
same,mitochondrial function of impacted chondrocytes,"[6]; impacted, 125 mM, vs untreated impacted chondrocytes",not significantly different from that of untreated impacted chondrocytes
same,mitochondrial function of non-impacted chondrocytes,"[6]; non-impacted, 125 mM",slightly declined
same,activation of AMPK,[7],activates AMPK
same,inhibition of Complex I,[8],inhibiting Complex I
Cc1ccc(Oc2nc3cc(-c4ccc5c(ccn5C)c4)c(Cl)cc3[nH]2)cc1C(=O)O [EX229],rescue of chondrocyte viability following AMD,[3]; impacted,rescues the AMD-induced decrease in chondrocyte viability
same,cell viability (live/dead staining),[3]; [11],improved cell viability in impacted chondrocytes in a dose-dependent manner
same,prevention of impact-induced chondrocyte death,[3]; impacted,neither of these activators completely prevented impact-induced chondrocyte death
same,solubility in aqueous solutions,[9],low solubility
CCC1(CCC(C)C)C(=O)NC(=O)NC1=O [amobarbital],block of mitochondrial electron transport at complex I,[10],blocks mitochondrial electron transport at complex I to prevent chondrocyte dysfunction and apoptosis
O=C(Nc1ccccc1-c1cn2c(CN3CCNCC3)csc2n1)c1cnc2ccccc2n1 [SRT1720],rescue of chondrocyte viability following AMD,[3]; impacted,rescues chondrocyte viability following AMD
same,cell viability (live/dead staining),[3]; [11],improved cell viability in impacted chondrocytes in a dose-dependent manner
same,prevention of impact-induced chondrocyte death,[3]; impacted,neither of these activators completely prevented impact-induced chondrocyte death
same,solubility in aqueous solutions,[9],low solubility
